Assay [1] deals with T1, cGK (Homo sapiens, UniProt Q13976).
T1 sequence (Q13976 1-671): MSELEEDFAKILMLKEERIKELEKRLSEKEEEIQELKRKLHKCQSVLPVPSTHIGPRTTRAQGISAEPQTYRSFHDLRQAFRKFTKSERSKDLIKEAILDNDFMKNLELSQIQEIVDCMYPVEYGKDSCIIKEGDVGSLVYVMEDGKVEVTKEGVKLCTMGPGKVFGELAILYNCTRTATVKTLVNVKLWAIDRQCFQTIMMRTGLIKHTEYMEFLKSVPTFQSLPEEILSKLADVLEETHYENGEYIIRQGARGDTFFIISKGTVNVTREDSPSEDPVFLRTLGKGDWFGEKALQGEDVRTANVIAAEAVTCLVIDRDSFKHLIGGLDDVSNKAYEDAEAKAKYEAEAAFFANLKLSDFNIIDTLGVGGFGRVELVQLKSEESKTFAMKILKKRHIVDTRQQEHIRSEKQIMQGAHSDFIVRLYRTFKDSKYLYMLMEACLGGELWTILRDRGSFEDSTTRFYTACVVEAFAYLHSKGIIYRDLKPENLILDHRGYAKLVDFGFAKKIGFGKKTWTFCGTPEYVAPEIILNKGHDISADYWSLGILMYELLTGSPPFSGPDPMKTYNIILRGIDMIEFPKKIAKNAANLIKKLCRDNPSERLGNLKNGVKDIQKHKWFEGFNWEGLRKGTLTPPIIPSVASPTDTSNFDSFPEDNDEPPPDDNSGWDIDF
Briefly: biochemical.
Protocol: Instead of carrying out a kinase reaction for the purpose of establishing and optimizing the detection system, a synthetic phosphopeptide (phosphorylated version of the VASP substrate peptide) was used as the “reaction product” and was quantified using a detection mix. In order to ascertain the linear measurement range, different mixtures of unphosphorylated peptide and phosphopeptide were prepared. When so doing, the total concentration of peptide was kept constant at 500 nmol/l. 50 μl of these mixtures were added to the wells of a 96-well microtest plate and in each case treated with 200 μl of a detection mix which contained the following reagents diluted in PBS:
The time-resolved FRET signal, when exciting the europium fluorescence at 340 nm and measuring the emission of the APC fluorescence at 660 nm, was measured, after incubating at 20° C. for 1 hour, using a PerkinElmer Wallac fluorescence-measuring instrument (Victor^2).
After the tubes had been preincubated at 30° C. for 5 minutes, the kinase reaction was started with 50 μmol of ATP/l, with subsequent incubation being at 30° C. All the above-mentioned concentrations are to be understood as meaning final concentrations in a volume of 500 μl. […] The phosphorylated substrate peptide was detected, as described in Example 1, in the wells of a 384-well microtest plate. […]

For assay [2], the target named is T1, cGK. Briefly: Influence of DMSO on the enzyme activity in the test system. Type of assay: biochemical. The conditions noted are these: for Enzyme activity in cps/min: incubation period 10 min. On the procedure: Most substances which are tested in an HTS are preferably dissolved in DMSO. However, many enzymes or test systems are very sensitive to DMSO. In order to determine the influence of DMSO on the test system according to the invention, phosphorylation kinetics, as described in Example 2 (cf. FIG. 2), were carried out in the presence of 0, 5, 10, 15 and 20% DMSO.

The structures appear in SMILES notation.

As for `Nc1nc(=O)c2nc(Sc3ccc(Cl)cc3)n([C@@H]3O[C@@H]4COP(=O)(O)O[C@H]4[C@H]3O)c2[nH]1` [8-pCPT-cGMP], the EC50 (as a rule, the concentration at which the effect is half-maximal) at cGK [1] is 100 nM.

As to `C[S+](C)[O-]` [DMSO, dimethyl sulfoxide], the “Enzyme activity in cps/min” value at cGK [2] (5 percent by volume of DMSO) came out at 2282 cps/min; on cGK [2] (10 percent by volume of DMSO), 2253 cps/min; at cGK [2] (15 percent by volume of DMSO), 2218 cps/min; at cGK [2] (20 percent by volume of DMSO), 1988 cps/min. In addition, the “influence on the reaction” value on cGK [2] (up to 20 percent by volume of DMSO) is given as “no significant influence”.

For the origin of these results see patent US20030166005A1, “Test system for determining the activity of cyclo-nucleotide-dependent protein kinases and vasp phosphatases” (priority 2000, published 2003).
